Experimental data reported in article PMC5487684, “Safety, Pharmacokinetics, and Antiviral Activity of a Novel HIV Antiviral, ABX464, in Treatment-Naive HIV-Infected Subjects in a Phase 2 Randomized, Controlled Study” (Antimicrobial Agents and Chemotherapy, 2017).
“Also recorded” adds a separate entry of the source.

How the values were obtained:
healthy subjects = conditions: cited from earlier work
HIV = HIV viral load (HIV-1 RNA copies per milliliter) in treatment-naive HIV-infected patients; assay type: in vivo
Description: Safety assessments and laboratory tests were carried out according to the schedules described in Table S4 for groups dosed every day, every 3 days, and 3 times a day. Follow-up visits were scheduled for 7 days after the last dose and subsequently once every week in order to assess the elimination of the main ABX464 metabolite and to assess the viral load. Follow-up visits were terminated when the virus load was within 0.5 log of the baseline value or after 3 follow-up visits, whichever came first. Prior to the statistical analyses, AEs were coded using the Medical Dictionary for Regulatory Activities (MedDRA dictionary; last available version) in order to be tabulated by system organ class (SOC) and preferred term (PT). The AEs were analyzed according to the treatment emergence phase from the first study drug administration on day 1 up to 48 h after the last study drug administration. The number and percentage of subjects with at least one TEAE were tabulated by SOC and PT for each group and dose. The number of occurrences of TEAEs was also analyzed in the same way by SOC and PT for each group and dose, by grade of severity for each group and dose, and by level of causality to the study drug for each group and dose.
Plasma samples were analyzed for ABX464 and ABX464-NGlc using validated bioanalytical methods by Atlanbio (Saint Nazaire, France) according to good laboratory practices. Pharmacokinetic parameters were calculated by noncompartmental analysis (NCA), using Phoenix WinNonlin software (Pharsight Corporation) running on a personal computer. On day 1, the following PK parameters were generated: Cmax, the time to Cmax (Tmax), lag time (tlag), elimination rate constant (kel), area under the concentration-time curve (AUC) from time zero to time t (AUC0–t), AUC from time zero to infinity (AUC0–∞), apparent clearance (CL/F), and apparent volume of distribution (V/F). On the other days of PK assessment, only Cmax, Tmax, tlag, kel, and AUC0–t were generated. The secondary analysis concerned pharmacodynamic (PD) activity, as expressed by CD4 and CD8 levels and viral load across time. The HIV viral load was analyzed in the prequalified individual local study center laboratories. CD4 and CD8 cell counts were also determined in the local study center laboratories. With respect to the viral load, changes in the log-transformed viral load values between 24 h postdose and predose were calculated on each day, and a comparison between each dose level and pooled placebo data was made. Moreover, the rate of success (defined as a decrease in the viral load value of at least 0.5 log) was evaluated for each treatment (including placebo) and compared between treatments.
No formal sample size determination was done. The aim of the study was to obtain reliable and consistent data and to expose a limited number of subjects to ABX464. To achieve this aim, six subjects per group received ABX464. A mixed model analysis of covariance of the changes in the viral load compared to that at the baseline was conducted on log-transformed values. Baseline parameters and age were covariates, treatment groups were fixed effects, and subjects were random effects.

FC(F)(F)Oc1ccc(Nc2ccc3cccc(Cl)c3n2)cc1 [ABX464]
Tolerability in healthy volunteers, food effect and repeated dosing study (healthy subjects): good tolerability profile
Tolerability in healthy subjects, first-in-human study (healthy subjects; single ascending oral dose, up to 150 mg): very well tolerated; also recorded: well tolerated
Subjects demonstrating an antiviral response (HIV; 75 mg once a day): 16%
Subjects demonstrating an antiviral response (HIV; 100 mg once a day): 33%
Subjects demonstrating an antiviral response (HIV; 150 mg once a day): 66%
Mixed model analysis, RNA viral load Day 2 to Day 14, Treatment Group Estimate (HIV; ABX464 150 mg once a day vs. Placebo): -0.1559
Measurements demonstrating a 0.5 log10 decrease over the treatment period (HIV; ABX464-treated subjects): 49 measurements
Change in log10 no. of RNA copies/ml from that at the baseline (HIV; Group 1 (25 mg every 3 days, fasted), subject 102, day 4): −0.99 log10 no. of RNA copies/ml
Change in log10 no. of RNA copies/ml from that at the baseline (HIV; Group 1 (25 mg every 3 days, fasted), subject 102, day 5): −1.47 log10 no. of RNA copies/ml
Change in log10 no. of RNA copies/ml from that at the baseline (HIV; Group 1 (25 mg every 3 days, fasted), subject 102, day 7): −1.36 log10 no. of RNA copies/ml
Change in log10 no. of RNA copies/ml from that at the baseline (HIV; Group 1 (25 mg every 3 days, fasted), subject 102, day 8): −1.57 log10 no. of RNA copies/ml
Change in log10 no. of RNA copies/ml from that at the baseline (HIV; Group 1 (25 mg every 3 days, fasted), subject 102, day 10): −1.43 log10 no. of RNA copies/ml
Change in log10 no. of RNA copies/ml from that at the baseline (HIV; Group 1 (25 mg every 3 days, fasted), subject 102, day 11): −1.61 log10 no. of RNA copies/ml
Change in log10 no. of RNA copies/ml from that at the baseline (HIV; Group 1 (25 mg every 3 days, fasted), subject 102, day 13): −1.4 log10 no. of RNA copies/ml
Change in log10 no. of RNA copies/ml from that at the baseline (HIV; Group 1 (25 mg every 3 days, fasted), subject 102, day 14): −1.51 log10 no. of RNA copies/ml
Change in log10 no. of RNA copies/ml from that at the baseline (HIV; Group 1 (25 mg every 3 days, fasted), subject 105, day 14): −0.5 log10 no. of RNA copies/ml
Change in log10 no. of RNA copies/ml from that at the baseline (HIV; Group 1 (25 mg every 3 days, fasted), subject 105, day 16): −0.52 log10 no. of RNA copies/ml
Change in log10 no. of RNA copies/ml from that at the baseline (HIV; Group 1 (25 mg every 3 days, fasted), subject 105, day 17): −0.65 log10 no. of RNA copies/ml
Change in log10 no. of RNA copies/ml from that at the baseline (HIV; Group 1 (25 mg every 3 days, fasted), subject 106, day 5): −0.72 log10 no. of RNA copies/ml
Change in log10 no. of RNA copies/ml from that at the baseline (HIV; Group 1 (25 mg every 3 days, fasted), subject 106, day 11): −0.56 log10 no. of RNA copies/ml
Change in log10 no. of RNA copies/ml from that at the baseline (HIV; Group 1 (25 mg every 3 days, fasted), subject 106, day 13): −0.62 log10 no. of RNA copies/ml
Change in log10 no. of RNA copies/ml from that at the baseline (HIV; Group 1 (25 mg every 3 days, fasted), subject 106, day 16): −0.74 log10 no. of RNA copies/ml
Change in log10 no. of RNA copies/ml from that at the baseline (HIV; Group 1 (25 mg every 3 days, fasted), subject 106, day 17): −0.51 log10 no. of RNA copies/ml
Change in log10 no. of RNA copies/ml from that at the baseline (HIV; Group 1 (25 mg every 3 days, fasted), subject 106, day 19): −0.61 log10 no. of RNA copies/ml
Change in log10 no. of RNA copies/ml from that at the baseline (HIV; Group 2 (25 mg q.d., fasted), subject 201, day 14): −0.54 log10 no. of RNA copies/ml
Change in log10 no. of RNA copies/ml from that at the baseline (HIV; Group 4 (50 mg t.i.d., fed), subject 2007, day 10): −0.62 log10 no. of RNA copies/ml
Change in log10 no. of RNA copies/ml from that at the baseline (HIV; Group 4 (50 mg t.i.d., fed), subject 2009, day 10): −0.72 log10 no. of RNA copies/ml
Change in log10 no. of RNA copies/ml from that at the baseline (HIV; Group 4 (50 mg t.i.d., fed), subject 2009, day 14): −1.23 log10 no. of RNA copies/ml
Change in log10 no. of RNA copies/ml from that at the baseline (HIV; Group 4 (50 mg t.i.d., fed), subject 2009, day 18): −1.39 log10 no. of RNA copies/ml
Change in log10 no. of RNA copies/ml from that at the baseline (HIV; Group 5 (75 mg q.d., fed), subject 605, day 2): −0.71 log10 no. of RNA copies/ml
Change in log10 no. of RNA copies/ml from that at the baseline (HIV; Group 5 (75 mg q.d., fed), subject 605, day 4): −0.77 log10 no. of RNA copies/ml
Change in log10 no. of RNA copies/ml from that at the baseline (HIV; Group 5 (75 mg q.d., fed), subject 605, day 5): −0.76 log10 no. of RNA copies/ml
Change in log10 no. of RNA copies/ml from that at the baseline (HIV; Group 5 (75 mg q.d., fed), subject 605, day 7): −0.89 log10 no. of RNA copies/ml
Change in log10 no. of RNA copies/ml from that at the baseline (HIV; Group 5 (75 mg q.d., fed), subject 605, day 8): −0.83 log10 no. of RNA copies/ml
Change in log10 no. of RNA copies/ml from that at the baseline (HIV; Group 5 (75 mg q.d., fed), subject 605, day 10): −1.06 log10 no. of RNA copies/ml
Change in log10 no. of RNA copies/ml from that at the baseline (HIV; Group 5 (75 mg q.d., fed), subject 605, day 11): −1.05 log10 no. of RNA copies/ml
Change in log10 no. of RNA copies/ml from that at the baseline (HIV; Group 6 (100 mg q.d., fasted), subject 804, day 11): −0.52 log10 no. of RNA copies/ml
Change in log10 no. of RNA copies/ml from that at the baseline (HIV; Group 6 (100 mg q.d., fasted), subject 804, day 15): −0.59 log10 no. of RNA copies/ml
Change in log10 no. of RNA copies/ml from that at the baseline (HIV; Group 6 (100 mg q.d., fasted), subject 807, day 11): −0.51 log10 no. of RNA copies/ml
Change in log10 no. of RNA copies/ml from that at the baseline (HIV; Group 6 (100 mg q.d., fasted), subject 807, day 18): −1.44 log10 no. of RNA copies/ml
Change in log10 no. of RNA copies/ml from that at the baseline (HIV; Group 7 (150 mg every 3 days, fed), subject 908, day 16): −0.72 log10 no. of RNA copies/ml
Change in log10 no. of RNA copies/ml from that at the baseline (HIV; Group 7 (150 mg every 3 days, fed), subject 908, day 19): −0.53 log10 no. of RNA copies/ml
Change in log10 no. of RNA copies/ml from that at the baseline (HIV; Group 7 (150 mg every 3 days, fed), subject 908, day 20): −0.59 log10 no. of RNA copies/ml
Change in log10 no. of RNA copies/ml from that at the baseline (HIV; Group 8 (150 mg q.d., fed), subject 1001, day 10): −0.5 log10 no. of RNA copies/ml
Change in log10 no. of RNA copies/ml from that at the baseline (HIV; Group 8 (150 mg q.d., fed), subject 1001, day 11): −0.62 log10 no. of RNA copies/ml
Change in log10 no. of RNA copies/ml from that at the baseline (HIV; Group 8 (150 mg q.d., fed), subject 1001, day 14): −0.72 log10 no. of RNA copies/ml
Change in log10 no. of RNA copies/ml from that at the baseline (HIV; Group 8 (150 mg q.d., fed), subject 1001, day 15): −0.68 log10 no. of RNA copies/ml
Change in log10 no. of RNA copies/ml from that at the baseline (HIV; Group 8 (150 mg q.d., fed), subject 1004, day 10): −0.5 log10 no. of RNA copies/ml
Change in log10 no. of RNA copies/ml from that at the baseline (HIV; Group 8 (150 mg q.d., fed), subject 1004, day 14): −0.51 log10 no. of RNA copies/ml
Change in log10 no. of RNA copies/ml from that at the baseline (HIV; Group 8 (150 mg q.d., fed), subject 1004, day 15): −0.51 log10 no. of RNA copies/ml
Change in log10 no. of RNA copies/ml from that at the baseline (HIV; Group 8 (150 mg q.d., fed), subject 1005, day 7): −0.53 log10 no. of RNA copies/ml
Change in log10 no. of RNA copies/ml from that at the baseline (HIV; Group 8 (150 mg q.d., fed), subject 1005, day 11): −0.52 log10 no. of RNA copies/ml
Change in log10 no. of RNA copies/ml from that at the baseline (HIV; Group 8 (150 mg q.d., fed), subject 1008, day 8): −0.59 log10 no. of RNA copies/ml
Change in log10 no. of RNA copies/ml from that at the baseline (HIV; Group 8 (150 mg q.d., fed), subject 1008, day 10): −0.57 log10 no. of RNA copies/ml
Change in log10 no. of RNA copies/ml from that at the baseline (HIV; Group 8 (150 mg q.d., fed), subject 1008, day 11): −0.56 log10 no. of RNA copies/ml
Change in log10 no. of RNA copies/ml from that at the baseline (HIV; Group 8 (150 mg q.d., fed), subject 1008, day 14): −0.53 log10 no. of RNA copies/ml
Mean changes in the viral load vs placebo group (HIV; any time point over the 14-day study period, all treatment groups): No statistically significant differences
Subjects with a decrease of ≥0.5 log10 in HIV RNA load (HIV; group 1, 25 mg every 3 days, fasted): 3 subjects
Subjects with a decrease of ≥0.5 log10 in HIV RNA load (HIV; group 2, 25 mg q.d., fasted): 1 subjects
Subjects with a decrease of ≥0.5 log10 in HIV RNA load (HIV; group 4, 50 mg t.i.d., fed): 2 subjects
Subjects with a decrease of ≥0.5 log10 in HIV RNA load (HIV; group 5, 75 mg q.d., fed): 1 subjects
Subjects with a decrease of ≥0.5 log10 in HIV RNA load (HIV; group 6, 100 mg q.d., fasted): 2 subjects
Subjects with a decrease of ≥0.5 log10 in HIV RNA load (HIV; group 7, 150 mg every 3 days, fed): 1 subjects
Subjects with a decrease of ≥0.5 log10 in HIV RNA load (HIV; group 8, 150 mg q.d. for 2 weeks, fed (6 treated)): 4 subjects
